According to ChEMBL document CHEMBL5131397, “Discovery and Optimization of Pyrazole Amides as Inhibitors of ELOVL1” (J Med Chem, 2021):
Calls of active or inactive are those of the source. No cut-off for these calls is given here.

Tests used:
Mus musculus [1] = test: Reversal of loss of thermal pain sensitivity in ABCD1 knock out mouse assessed as increase in latency at 8 to 32 mg/kg, po qd treated for 6 months by Hargreaves test; assay type: functional, organism-based; conditions: dose 8-32 mg/kg
[2] = Half life in Sprague-Dawley rat at 1 mg/kg, iv upto 48 hrs by LC/MS/MS analysis; assay type: ADME, organism-based; conditions: in vivo
[3] = Toxicity in Sprague-Dawley rat assessed as corneal keratitis at 5 mg/kg/day, po administered for 8 weeks by macroscopic observation analysis; assay type: organism-based; conditions: in vivo, 1344 h
Mus musculus [4] = test: Reduction in C24:0/C16:0 LPC level in ABCD1 knock out mouse CNS at 1 to 10 mg/kg, po qd measured after 3 months of dosing by LC-MS/MS analysis; assay type: functional, organism-based; conditions: dose 1-10 mg/kg
[5] = molecular target: T1, Very long chain fatty acid elongase 1 (Homo sapiens, UniProt Q9BW60); test: Inhibition of ELOVL1 in CALD patient-derived human fibroblast assessed as reduction of C26:0 VLCFA synthesis incubated for 48 hrs by cellular assay; assay type: cell-based
T1 sequence (Q9BW60 whole entry): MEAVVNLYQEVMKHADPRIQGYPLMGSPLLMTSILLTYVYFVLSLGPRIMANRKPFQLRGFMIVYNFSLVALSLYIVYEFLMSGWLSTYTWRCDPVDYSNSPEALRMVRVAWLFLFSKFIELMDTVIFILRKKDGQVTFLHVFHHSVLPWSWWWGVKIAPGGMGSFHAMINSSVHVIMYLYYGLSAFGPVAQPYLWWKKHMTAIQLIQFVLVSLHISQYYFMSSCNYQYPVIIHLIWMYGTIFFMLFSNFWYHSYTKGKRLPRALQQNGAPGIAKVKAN

[6] = Toxicity in Cynomolgus monkey assessed as skin lesions at 1 mg/kg/day, po observed from 8 to 13 weeks; assay type: organism-based, Macaca fascicularis; conditions: in vivo, time 8-13 weeks
[7] = Cmax in Beagle dog at 3 mg/kg, po upto 24 hrs by LC/MS/MS analysis; assay type: ADME, organism-based, Canis lupus familiaris; design: dose 3 mg/kg, time < 24 hrs, route po; conditions: in vivo
[8] = Intrinsic clearance in rat hepatocytes assessed per million cells; assay type: ADME, cell-based, Hepatocyte; conditions: read-out: CLH
[9] = Toxicity in Cynomolgus monkey assessed as skin inflammatory infiltrates at 5 to 50 mg/kg/day, po administered for 14 days by microscopic observation analysis; assay type: organism-based, Macaca fascicularis; conditions: in vivo, 336 h, dose 5-50 mg/kg/day, time 14 day
[10] = Reduction in C26:0 LPC level in wild-type C57BL/6 mouse blood at 2 to 32 mg/kg, po qd for 105 days by LC-MS/MS analysis relative to control; assay type: functional; design: scale not given: the % may be the effect or the level left; conditions: dose 2-32 mg/kg, time 105 day
[11] = molecular target: T2, Very long chain fatty acid elongase 7 (Homo sapiens) (UniProt A1L3X0); test: Inhibition of ELOVL-7 in human HEK2936E cells assessed as reduction in C22:0 lysophosphatidyl choline synthesis at 100 nM in presence of 13C-labeled acetate measured after 48 hrs; assay type: cell-based
T2 sequence (whole entry): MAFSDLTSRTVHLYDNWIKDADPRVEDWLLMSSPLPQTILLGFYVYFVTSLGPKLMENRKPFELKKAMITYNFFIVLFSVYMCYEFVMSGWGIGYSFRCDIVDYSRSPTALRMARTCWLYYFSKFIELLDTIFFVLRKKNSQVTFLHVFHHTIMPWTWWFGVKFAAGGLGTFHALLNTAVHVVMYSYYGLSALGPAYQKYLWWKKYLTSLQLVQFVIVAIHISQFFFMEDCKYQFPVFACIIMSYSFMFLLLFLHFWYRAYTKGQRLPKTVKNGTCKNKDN

[12] = Cmax in Cynomolgus monkey at 3 mg/kg, po upto 24 hrs by LC/MS/MS analysis; assay type: ADME, organism-based, Macaca fascicularis; design: time < 24 hrs, dose 3 mg/kg, route po; conditions: in vivo
[13] = Toxicity in Sprague-Dawley rat assessed as corneal abnormalities at 5 mg/kg/day, po administered for 8 weeks measured after cessation of dosing; assay type: organism-based; conditions: in vivo, 1344 h
[14] = Increase in C20:0/C16:0 LPC level in ABCD1 knock out mouse CNS at 1 mg/kg, po qd measured after 3 months of dosing by LC-MS/MS analysis; assay type: functional; conditions: 2190 h
[15] = Toxicity in Sprague-Dawley rat assessed as ulceration at 5 to 50 mg/kg/day, po administered for 2 to 8 weeks; assay type: organism-based; conditions: in vivo, dose lower 5 mg/kg/day, time lower 2 weeks, dose upper 50 mg/kg/day, time upper 8 weeks
[16] = Toxicity in Cynomolgus monkey assessed as hyperkeratosis at 5 to 50 mg/kg/day, po administered for 14 days by microscopic observation analysis; assay type: organism-based, Macaca fascicularis; conditions: in vivo, 336 h, dose 5-50 mg/kg/day, time 14 day
[17] = Half life in Beagle dog at 0.5 mg/kg, iv upto 48 hrs by LC/MS/MS analysis; assay type: ADME, organism-based, Canis lupus familiaris; conditions: in vivo
[18] = molecular target: T3, Adenosine receptor A3 (Homo sapiens) (UniProt P0DMS8); test: Inhibition of Adenosine A3 Receptor (unknown origin) at 10 uM
T3 sequence (whole entry): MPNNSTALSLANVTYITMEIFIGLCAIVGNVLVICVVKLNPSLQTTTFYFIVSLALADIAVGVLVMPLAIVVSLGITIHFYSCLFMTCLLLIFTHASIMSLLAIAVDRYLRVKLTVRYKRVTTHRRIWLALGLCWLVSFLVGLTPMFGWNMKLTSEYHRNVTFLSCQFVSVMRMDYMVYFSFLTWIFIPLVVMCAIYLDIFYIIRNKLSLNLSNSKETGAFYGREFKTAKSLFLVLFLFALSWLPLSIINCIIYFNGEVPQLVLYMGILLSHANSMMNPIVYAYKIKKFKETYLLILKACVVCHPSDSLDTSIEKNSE

[19] = molecular target: T4, Very long chain fatty acid elongase 1 (Homo sapiens) (UniProt Q9BW60); test: Inhibition of ELOVL-1 in human HEK2936E cells assessed as reduction in C24:0 lysophosphatidyl choline synthesis at 100 nM in presence of 13C-labeled acetate measured after 48 hrs; assay type: cell-based
T4 sequence (whole entry): T1 sequence (Q9BW60 whole entry)

[20] = Reduction of C26:0 /C16:0 LPC level in ABCD1 KO mouse blood at 20 mg/kg, po qd for 8 months by LC-MS/MS analysis relative to control; assay type: functional; design: scale not given: the % may be the effect or the level left; conditions: 5840 h
[21] = Toxicity in juvenile Sprague-Dawley rat assessed as corneal lesions at 5 to 75 mg/kg/day, po treatment started from postnatal day 18 to 114 days; assay type: organism-based; conditions: in vivo, dose lower 5 mg/kg/day, time lower 18 day, dose upper 75 mg/kg/day, time upper 114 day
[22] = Toxicity in Sprague-Dawley rat assessed as corneal opacities at 5 mg/kg/day, po administered for 8 weeks by macroscopic observation analysis; assay type: organism-based; conditions: in vivo, 1344 h
[23] = Toxicity in Sprague-Dawley rat assessed as ocular focal cellular disorganization at 5 mg/kg/day, po administered for 8 weeks by microscopic observation analysis; assay type: organism-based; conditions: in vivo, 1344 h
[24] = Reduction in C26:0/C16:0 LPC level in wild-type Sprague-Dawley rat at 300 mg/kg, po qd treated for 7 days by LC-MS/MS analysis; assay type: functional; design: scale not given: the % may be the effect or the level left; conditions: time 7 day
[25] = Reduction in C26:0/C16:0 LPC level in ABCD1 knock out mouse CNS at 20 mg/kg, po qd measured after 8 months of dosing by LC-MS/MS analysis; assay type: functional; design: scale not given: the % may be the effect or the level left; conditions: 5840 h
[26] = Toxicity in Sprague-Dawley rat assessed as ocular epithelial atrophy at 5 mg/kg/day, po administered for 8 weeks by microscopic observation analysis; assay type: organism-based; conditions: in vivo, 1344 h

half-life [2]: 3.5 h
IC50 [5]: 20 nM
Cmax [7]: 261 ng/mL
hepatocyte CLint [8]: 14 µL/min/1e6 cells
inhibition [11]: Active
Cmax [12]: 404 ng/mL
half-life [17]: 3.5 h
inhibition [18]: > 50%
inhibition [19]: Active
Compound: O=C(Nc1ccn(-c2ccnc(F)c2)n1)C1(c2ccccc2F)CC1
Activity (Mus musculus [1]): Active
Activity [3]: Toxic
Activity (Mus musculus [4]): Active
Activity [6]: Non-Toxic
Activity [9]: Toxic
Activity [10]: 67%
Activity [13]: Toxic
Activity [14]: 18%
Activity [15]: Toxic
Activity [16]: Toxic
Activity [20]: 68%
Activity [21]: Toxic
Activity [22]: Toxic
Activity [23]: Toxic
Activity [24]: 85%
Activity [25]: 65%
Activity [26]: Toxic
